# Assay results as given in ChEMBL document CHEMBL1157259, “Cytotoxic and other compounds from Didymochlaena truncatula from the Madagascar rain forest” (J Nat Prod, 2006).
# Test system: A2780
# Assay: Cytotoxicity against human A2780 cells by clonogenic assay
# Assay type: functional, cell-based
row,Structure (SMILES),IC50 [µg/mL]
1,CC[C@@]1(O)C(=O)OCc2c1cc1n(c2=O)Cc2cc3c(OC)cccc3nc2-1,0.02
2,CC[C@@]1(O)C(=O)OCc2c1cc1n(c2=O)Cc2cc3ccccc3nc2-1 [CAMPTOTHECIN],0.07
3,COc1cc(O)cc(/C=C/c2ccccc2)c1 [PINOSYLVIN METHYL ETHER],10
